The values that follow come from publication PMC12362594, “Design, Synthesis and Preclinical Evaluation of a Brain-Permeable PET Tracer for P2Y12 Receptor Imaging in the Brain” (Journal of Medicinal Chemistry, 2025).

Several values for one entry are separate records, joined by “and”; a condition that tells them apart may be missing. Equal values may be shown once.

Data set [1] has as its target P2Y12R (Homo sapiens, UniProt Q9H244). Nature of the data set: cell-based. The conditions noted are these: IC50, [33P]2-MeSADP competitor; triplicates, mean; footnote b values: three independent experiments, mean ± SD. The procedure: The cell cultures were maintained in an incubator at 37 °C under a humidified and 5% CO2-conditioned atmosphere. Cells were passaged at 80% confluency. For binding assays, cells were harvested with Trypsin-EDTA (5 mL, Gibco) and resuspended in medium. The suspension was centrifuged at 1000g for 5 min and the supernatant was discarded. The cells were adjusted to assay cell concentration (2 × 10^6 cells/mL) by the addition of D-PBS and stored at 37 °C up to 1 h prior to the binding assay.
The mixture was transferred to a 96-well filter plate (1.0 μm glass fiber filter, MultiScreenHTS FB Filter Plate, Merck Millipore, Billercia, MA) and filtered with a vacuum manifold (MultiScreenHTS Vacuum Manifold, Merck Millipore, Billercia, MA). The filters were washed by the addition of cold PBS buffer (4 × 200 μL) and dried at rt for 1 h. Afterward, a punch-tip plate was mounted and the filters were separated into scintillation vials (10 mL) containing scintillation cocktail (4 mL, Rotiszint eco plus LSC-Universalcocktail). […] Bound activity was plotted as a function of ligand concentration in GraphPad Prism 8.0 (GraphPad Software, version 8.4.3., San Diego, CA).

A short description of data set [2]: Log D 7.4 shake flask method, n-octanol/PBS. The conditions noted are these: pH 7.4.
Method: The distribution of [^18F]12 between n-octanol and PBS buffer was determined by the shake-flask method at rt. […] After 30 min, three samples (100 μL) were taken from each phase. […] Radioactivity for all samples was quantified by a γ-counter (counting time 1 min, counting window 450–570 keV, HIDEX AMG γ Counter version 1.6.0.0, Turku, Finland).
Data set [3] can be described thus: In vitro stability in human blood/plasma, radio-HPLC. The following applies: 37 °C.
Data set [4] in a line: Ex vivo biodistribution 60 min p.i. The format is in vivo, mouse. The following applies: WT mice.
Data set [5] has as its target T1, P2Y12R (Mus musculus, UniProt Q9CPV9). Nature of the data set: Correlation of PET signal with immunohistochemistry. Also noted: from tissue; host or cells: brain of living WT, PLX-5622-treated and Trem2-/- mice. The format is in vivo. The conditions noted are these: cortical SUV 25–60 min p.i. The procedure: Ex vivo immunohistochemical evaluation of Iba1 and P2Y12R expression was performed for a subset of mice (4 WT, 4 PLX, 8 Trem2^–/–) to correlate P2Y12 PET signal with target expression. […] High levels of Iba1 and P2Y12R were also detectable in Trem2^–/– mice, but reflecting the results of the PET studies, P2Y12R levels were not elevated compared to WT mice. Cortical SUV levels, derived from PET imaging in the most significant time frame (25–60 min p.i.) (Figure S12D), were correlated with Iba1 or P2Y12R expression density. A strong association between Iba1 signal and tracer uptake (R = 0.6589, p = 0.0055, Figure B) and between the P2Y12R signal and tracer uptake (R = 0.754, p = 0.0007, Figure C) was observed. The P2Y12 signal was well associated with Iba1 (R = 0.6, p = 0.014, Figure D) indicating predominant microglial receptor visualization.
Paraformaldehyde-fixed 50 μm thick sagittal brain sections were incubated overnight at 4 °C in PBS with 5% normal goat serum and 0.5% Triton X-100 containing guinea pig monoclonal anti-Iba1 primary antibody (1:500, Synaptic Systems GmbH, Göttingen, Germany, 234308) and rat monoclonal anti-P2Y12R primary antibody (1:200, P2YM 17A12, this work). […] The images were processed using the LAS X Software (version 3.9.1.28433), and analysis was conducted with FiJi/ImageJ (version 1.54f) by quantifying Iba1 and P2Y12R signal over a predefined threshold. […]

Data set [6] addresses T1, P2Y12R. Put plainly: Dynamic in vivo PET imaging in WT, PLX and Trem2-/- mice. The following applies: for maximum brain uptake C max: whole brain TAC.
Method: Dynamic in vivo PET imaging was carried out in WT mice (n = 8) in order to assess the tracer distribution and brain uptake for [^18F]12 (Figure A). An initial peak of activity and subsequent rapid washout in blood and lungs was observed after tracer injection. The activity then predominantly accumulated in the liver, kidneys, bladder and intestines (Figure B). […] Dynamic in vivo PET imaging was repeated with WT mice (n = 2) under self-block conditions. […] Mouse organs were collected 60 min p.i. after intracardial perfusion to quantify the tracer uptake ex vivo.
To exclude a potential bias in brain PET interpretation caused by varying blood levels, volume-of-distribution (V T) images were computed using an image-derived cardiac input function.
The mice were scanned first with CT (70 kVp/650 μA, exposure time 300 ms, Helical 1.0 pitch). […] PET images of each mouse were coregistered with CT images of the corresponding mouse. A standardized global mean volume of interest (VOI) was used to assess tracer enrichment in the brain and to generate time-activity curves. For liver, bladder and kidney, VOIs were manually drawn as spheres. Data are reported as %ID/g or SUV. For each dynamic PET scan, VT was calculated using the method described by Logan et al., employing a cardiac input function obtained from a standardized VOI. The resulting brain V T image was then analyzed using a standardized global mean VOI. No corrections were made for radiometabolites.
Data set [7] in a line: In vitro stability in PBS, radio-HPLC. The conditions noted are these: PBS formulation, 37 °C.
Data set [8] has as its target T1, P2Y12R. Put plainly: In vitro autoradiography on mouse brain sections. Type of data set: binding. Also noted: from tissue; host or cells: brain of living WT, PLX-5622-treated and Trem2-/- mice. The method, then: In vitro ARG experiments on brain sections from all animal models were performed under baseline and blocking conditions. […] However, as already concluded from our PET data (Figure ), the high signal in PLX sections may reflect a substantial amount of nonspecific (NSB) or off-target binding.
WT, PLX and Trem2^–/– mouse brain sections were thawed to rt for 5 min and then preincubated with PBS buffer (pH = 7.4) for 10 min. Sections were then incubated with a maximum of 0.5 MBq/mL [^18F]12 tracer formulation at rt for 45 min in PBS buffer. […] Subsequently, sections were washed with 30% ethanol for 1 min, 70% ethanol for 2 min and PBS for 1 min, before leaving them to dry at rt for 60 min. Afterward, brain sections were exposed to a phosphor imaging plate at rt for 24 h and then scanned with a CR-Reader (CR35 BIO, DÜRR MEDICAL, Bietigheim-Bissingen, Germany). The images were analyzed using Aida Image Analyzer software (v.4.50.010, Elysia-raytest GmbH, Straubenhardt, Germany). Quantification was performed by placing a region of interest (ROI) in the CTX and the hypothalamus (HYP) as pseudo reference region. Results are either expressed as normalized intensity relative to maximal intensity after background subtraction or as CTX to HYP ratio.

Data set [9] in a line: Ex vivo metabolite analysis by radio-HPLC (plasma, liver, brain). The following applies: 60 min p.i.
Method: 60 min after tracer administration, mice were transferred to the anesthesia box for isoflurane overdose and euthanized by cervical dislocation. Mouse organs and blood samples were collected, weighed and counted in a γ-counter. Blood samples were obtained by cardiac puncture and transferred to EDTA tubes (Microvette 500 K3E, Sarstedt, Nümbrecht, Germany) to prevent platelet aggregation. Blood samples were centrifuged at 3000g for 5 min to isolate blood plasma. An equal volume of TFA solution (10%) was added to plasma to precipitate remaining plasma proteins. The precipitate was separated by centrifugation at 20,817g for 5 min. […] Brain and liver samples were homogenized (Ika disperser T8.10) in a 1:1 mixture of MeCN and H2O and centrifuged at 3000g for 5 min.

T1 sequence (Q9CPV9 whole entry): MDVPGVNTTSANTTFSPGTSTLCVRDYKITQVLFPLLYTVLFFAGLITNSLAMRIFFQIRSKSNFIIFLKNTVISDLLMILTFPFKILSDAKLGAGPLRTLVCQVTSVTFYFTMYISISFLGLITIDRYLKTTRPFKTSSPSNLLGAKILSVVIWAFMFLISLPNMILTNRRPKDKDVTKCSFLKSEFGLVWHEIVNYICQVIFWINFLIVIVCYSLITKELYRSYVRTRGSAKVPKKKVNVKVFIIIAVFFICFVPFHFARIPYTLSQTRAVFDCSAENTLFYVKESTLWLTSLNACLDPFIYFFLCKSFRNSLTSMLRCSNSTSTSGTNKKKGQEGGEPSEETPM
Sequence of P2Y12R (Homo sapiens, UniProt Q9H244) (Q9H244 whole entry): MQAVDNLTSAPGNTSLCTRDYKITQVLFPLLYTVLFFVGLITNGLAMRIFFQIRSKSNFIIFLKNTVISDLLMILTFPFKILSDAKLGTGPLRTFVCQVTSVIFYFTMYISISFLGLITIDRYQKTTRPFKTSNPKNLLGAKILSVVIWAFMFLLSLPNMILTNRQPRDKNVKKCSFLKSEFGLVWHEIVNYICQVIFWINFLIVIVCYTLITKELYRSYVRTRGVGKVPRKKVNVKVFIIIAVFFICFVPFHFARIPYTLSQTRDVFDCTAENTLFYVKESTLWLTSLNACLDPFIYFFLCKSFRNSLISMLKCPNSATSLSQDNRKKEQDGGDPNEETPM

By IC50 is commonly meant the midpoint of a concentration-inhibition curve. A lower IC50 goes with greater potency in that assay. For the molecule `CCOC(=O)c1cc(C#N)c(N2CCN(C(=O)NCc3ccc(F)cc3)CC2)nc1C` [Compound 7, Ethyl 5-Cyano-6-(4-((4-fluorobenzyl)-carbamoyl)-piperazin-1-yl)-2-methylnicotinate], the IC50 on P2Y12R [1] is 1840 nM.

On to `N#Cc1cc2c(nc1N1CCN(C(=O)NCc3ccc(F)cc3)CC1)COC2=O` [Compound 8, 4-(3-Cyano-5-oxo-5,7-dihydrofuro[3,4-b]-pyridin-2-yl)-N-(4-fluorobenzyl)-piperazine-1-carboxamide], for which the IC50 at P2Y12R [1] was 1840 nM and 5710 nM.

`CCOC(=O)c1ccc(N2CCC(C(=O)NCc3ccc(F)cc3)CC2)nc1C` [Compound 9, Ethyl 6-(4-((4-Fluorobenzyl)-carbamoyl)-piperidin-1-yl)-2-methylnicotinate]: the IC50 on P2Y12R [1] amounted to 762 nM.

`N#Cc1cc2c(nc1N1CCC(C(=O)NCc3ccc(F)cc3)CC1)COC2=O` [Compound 14, 1-(3-Cyano-5-oxo-5,7-dihydrofuro[3,4-b]-pyridin-2-yl)-N-(4-fluorobenzyl)-piperidine-4-carboxamide] gave an IC50 on P2Y12R [1] of 199 nM. This IC50 is about 3.8-fold lower than that of the molecule before.

In turn, `CCOC(=O)c1ccc(N2CCC(C(=O)NCCc3ccc(F)cc3)CC2)nc1C` [Compound 15, Ethyl 6-(4-((4-Fluorophenethyl)-carbamoyl)-piperidin-1-yl)-2-methylnicotinate] came in with a half-inhibitory concentration (IC50) at P2Y12R [1] of 1260 nM. This IC50 lies about 6.3-fold higher than the previous one.

`CCOC(=O)c1cnc(N2CCC(C(=O)NCCc3ccc(F)cc3)CC2)c(Cl)c1` [Compound 16, Ethyl 5-Chloro-6-(4-((4-fluorophenethyl)-carbamoyl)-piperidin-1-yl)-nicotinate]: the IC50 at P2Y12R [1] worked out at 661 nM.

On to `CCOC(=O)c1cc(Cl)c(N2CCC(C(=O)NCCc3ccc(F)cc3)CC2)nc1C` [Compound 17, Ethyl 5-Chloro-6-(4-((4-fluorophenethyl)-carbamoyl)-piperidin-1-yl)-2-methylnicotinate], for which the IC50 on P2Y12R [1] was 661 nM and 469 nM.

`CCOC(=O)c1cc(C#N)c(N2CCC(C(=O)NCCc3ccc(F)cc3)CC2)nc1C` [Compound 18, Ethyl 5-Cyano-6-(4-((4-fluorophenethyl)-carbamoyl)-piperidin-1-yl)-2-methylnicotinate]: on P2Y12R [1], the IC50 came to 27100 nM. This counts as double-digit micromolar.

With `CCCOc1cc(N2CCC(C(=O)NCCc3ccc(F)cc3)CC2)c(Cl)cc1C(=O)OCC` [Compound 19, Ethyl 5-Chloro-4-(4-((4-fluorophenethyl)-carbamoyl)-piperidin-1-yl)-2-propoxybenzoate], the IC50 at P2Y12R [1] was 27100 nM and 3670 nM.

In the case of `CCOC(=O)c1ccc(N2CC(C(=O)NCc3ccc(F)cc3)C2)nc1C` [Compound 20, Ethyl 6-(3-((4-Fluorobenzyl)-carbamoyl)-azetidin-1-yl)-2-methylnicotinate], on P2Y12R [1], the IC50 worked out at 806 nM.

The molecule `CCOC(=O)c1cnc(N2CC(C(=O)NCc3ccc(F)cc3)C2)c(Cl)c1` [Compound 21, Ethyl 5-Chloro-6-(3-((4-fluorobenzyl)-carbamoyl)-azetidin-1-yl)-nicotinate] registered an IC50 at P2Y12R [1] of 566 nM.

As usually defined, the logD is the decadic logarithm of the distribution of all forms, ionised or not, between an organic phase and buffer at a given pH. In the case of `CCOC(=O)c1cc(C#N)c(N2CCC(C(=O)NCc3ccc([18F])cc3)CC2)nc1C` [[^18F]12], the pH-dependent lipophilicity (logD) in [2] is 2.67 ± 0.45. The “time stable with no decomposition” value in data set [3] is listed as “at least 2 h”. In [4] (n = 2), this molecule yielded a Heart uptake of 1.30 ± 0.51 %ID/g, a Kidney uptake of 5.5 ± 1.1 %ID/g, a Liver uptake of 19.6 ± 4.8 %ID/g and a Lung uptake of 0.68 ± 0.15 %ID/g. Moreover, in data set [4] (n = 2), the Pancreas uptake was 0.79 ± 0.14 %ID/g, the Plasma uptake is 1.58 ± 0.78 %ID/g and the Spleen uptake stood at 0.77 ± 0.19 %ID/g. In data set [4] (n = 2, listed as [18F]12), this molecule yielded a Kidney uptake of 5.51 ± 1.08 %ID/g and a Liver uptake of 19.62 ± 4.75 %ID/g. In data set [4] (n = 12), this molecule displayed a Blood uptake of 1.2 ± 0.6 %ID/g and a Brain uptake of 0.6 ± 0.2 %ID/g. In [4] (n = 12, listed as [18F]12), the Blood uptake is on record as 1.24 ± 0.56 %ID/g and the Brain uptake is 0.61 ± 0.21 %ID/g. Besides, the “correlation R between P2Y12R signal and tracer uptake” value on P2Y12R [5] (p = 0.0007) was determined as 0.754. Moreover, at P2Y12R [5] (p = 0.0055), the “correlation R between Iba1 signal and tracer uptake” value stood at 0.6589. Besides, the “higher brain accumulation in WT compared to PLX mice” value on P2Y12R [6] (25–60 min p.i., p = 0.0029) was determined as 42%. Moreover, on P2Y12R [6] (25–60 min p.i., p = 0.0362), the “higher brain accumulation in Trem2-/- compared to PLX mice” value was 30%. Further, the “maximum brain uptake C max” value at P2Y12R [6] (Trem2-/- mice) is given as 1.7 ± 0.5 SUV. Besides, the “brain uptake under self-block conditions” value on P2Y12R [6] (WT mice n = 2, 200-fold excess of nonradioactive 12 injected 10 min prior) is “increased brain uptake”. Moreover, the “C 25min/C 60min” value on P2Y12R [6] (WT mice, brain TAC plateau phase) is around 1.5. Moreover, at P2Y12R [6] (WT mice, p.i.), the “time of maximum brain uptake” value is listed as at most 2 min. At P2Y12R [6] (WT mice), the “maximum brain uptake C max” value is 2.5 ± 0.7 SUV. For the same molecule, the “brain V T increase in WT compared to PLX mice” value at P2Y12R [6] (image-derived cardiac input function, p = 0.002) is recorded as 16%. Further, at P2Y12R [6] (image-derived cardiac input function, p = 0.0454), the “brain V T increase in Trem2-/- compared to PLX mice” value was 10%. The “maximum brain uptake C max” value at P2Y12R [6] (microglia-depleted (PLX) mice) came out at 2.0 ± 0.5 SUV. Moreover, the “time stable with no decomposition” value in data set [7] was “at least 2 h”. For the same molecule, on P2Y12R [8] (PLX sections, 1 μM ticagrelor, p > 0.05), the “cortical signal under blocking with Ticagrelor” value (from here on “cortical signal under blocking”) is listed as “no reduction was observed”. Moreover, the “cortical signal under blocking” value on P2Y12R [8] (Trem2-/- sections, 1 μM ticagrelor, p < 0.05) is “significantly reduced”. In addition, the “cortical signal under blocking” value on P2Y12R [8] (WT sections, 1 μM ticagrelor (1000-fold excess), p < 0.001) is recorded as “significantly reduced”. For the same molecule, the “signal under blocking with nonradioactive compound 12” value at P2Y12R [8] (WT, PLX and Trem2-/- sections, 1 μM 12 (1000-fold excess)) is reported as “almost complete blocking of the signal”. Moreover, the “CTX signal normalized to HYP, PLX sections compared to WT and Trem2-/-” value at P2Y12R [8] (WT: p < 0.005, Trem2-/-: p < 0.001) is on record as “significant decreased uptake”. Moreover, in data set [9] (WT mice, radio-HPLC), the “fraction of radioactivity in liver” value came to 47% and the “fraction of radioactivity in plasma” value is given as “about 11%”. For the same molecule, in [9] (WT, PLX and Trem2-/- mice), the “intact tracer in plasma” value was found to be 7 ± 4%. Also, the “intact tracer in brain” value in data set [9] (all groups) was above 99%.
